# In patent publication US20070116745A1, “Spermicidal preparations and uses thereof” (CONVE LTD., priority 2004, published 2007):
# What was measured:
# [1] = Solubility in assay solvent (Table 1); format: physicochemical; conditions: in 0.9% NaCl pH 5 at initial conc
# [2] = system: sperm; assay: Modified Sander-Cramer assay (complete sperm immobilization); format: cell-based; conditions: solvent 0.9% NaCl pH 5, 30-second coincubation, n=6
# Procedure: The above formulations were used in a series of (i) Sander-Cramer assays (assessment of complete sperm immobilization during a 30-second, compound-sperm coincubation); and (ii) cervical mucous (CM) penetration assays (compound is pre-incubated with a CM microcolumn for 30 minutes, after which sperm are introduced into the system; sperm migration through the mucous is compared to that of control).
substance,measurement,setting,value
nonoxynol-9,SOLUBILITY,[1],OK - clear
same,HIGHEST SPERMICIDAL DILUTION (1/X),[2]; initial conc 1 mg/ml,8.0 ± 0.0 1/X
same,M.E.C. (Minimum Effective Concentration),[2],0.125 ± 0.000 mg/mL
